Data from patent publication US20200325154A1, “ANTIBACTERIAL BIAROMATIC DERIVATIVES WITH OXETANE-3-YLOXY SUBSTITUTION” (priority 2016, published 2020).
In brackets after ≈: the same amount, converted by molar mass.

Legend:
Test in all cases: Bacterial growth minimal inhibitory concentration (microdilution, cation-adjusted Mueller-Hinton Broth)
[1] = system: E. faecalis ATCC 29212; format: cell-based, Enterococcus faecalis; settings: quinolone-sensitive strain; for MIC: Enterococcus faecalis, ATCC29212, Table 1
Experimental: (§1) Minimal Inhibitory Concentrations (MICs; mg/L) were determined in cation-adjusted Mueller-Hinton Broth by a microdilution method following the description given in “Methods for Dilution Antimicrobial Susceptibility Tests for Bacteria that Grow Aerobically”, Approved standard, 7^1 ed., Clinical and Laboratory Standards Institute (CLSI) Document M7-A7, Wayne, Pa., USA (2006).
(§2) All Example compounds were tested against relevant Gram positive and Gram negative bacteria. […] Staphylococcus aureus A798 and Acinetobacter baumannii T6474 are multiply-resistant strains (in particular quinolone-resistant), whereas Moraxella catarrhalis A894 and Enterococcus faecalis ATCC29212 are quinolone-sensitive strains.

[2] = system: A. baumannii T6474; format: cell-based, Acinetobacter baumannii; settings: for MIC: Acinetobacter baumannii, T6474, Table 1, multiply-resistant (quinolone-resistant) strain
Experimental: as §1, §2

[3] = system: S. aureus A798; format: cell-based, Staphylococcus aureus; settings: for MIC: Staphylococcus aureus, A798, Table 1, multiply-resistant (quinolone-resistant) strain
Experimental: as §1, §2

[4] = system: M. catarrhalis A894; format: cell-based, Moraxella catarrhalis; settings: quinolone-sensitive strain; for MIC: Moraxella catarrhalis, A894, Table 1
Experimental: as §1, §2

[5] = Table 2, comparison with Example 50 of WO 2014/170821
[6] = Table 2, comparison with Example 50 of WO 2014/170821, multiply-resistant strain

Compound	MIC [1] [µg/mL]	MIC [2] [µg/mL]	MIC [3] [µg/mL]	MIC [4] [µg/mL]	MIC for E. faecalis ATCC 29212 [1, 5] [mg/L]	MIC for A. baumannii T6474 [2, 6] [mg/L]	MIC for S. aureus A798 [3, 6] [mg/L]	MIC for M. catarrhalis A894 [4, 5] [mg/L]
O=C1CSc2ccc(N3C[C@H](CCNCc4cc(-c5nccc(OC6COC6)n5)ccn4)OC3=O)cc2N1 [Example 12, 6-{(S)-5-[2-({4-[4-(oxetan-3-yloxy)-pyrimidin-2-yl]-pyridin-2-ylmethyl}-amino)-ethyl]-2-oxo-oxazolidin-3-yl}-4H-benzo[1,4]thiazin-3-one]	0.25 (≈ 0.468 µM)	0.25 (≈ 0.468 µM)	≤ 0.031	≤ 0.031	–	–	–	–
O=C1COc2ccc(N3C[C@H](CCNCc4cccc(-c5cc(OC6COC6)cnn5)c4)OC3=O)nc2N1 [Example 8, 6-[(S)-5-(2-{3-[5-(oxetan-3-yloxy)-pyridazin-3-yl]-benzylamino}-ethyl)-2-oxo-oxazolidin-3-yl]-4H-pyrido[3,2-b][1,4]oxazin-3-one]	4 (≈ 7.71 µM)	1 (≈ 1.93 µM)	0.5 (≈ 0.964 µM)	0.25 (≈ 0.482 µM)	–	–	–	–
O=C1COc2ccc(-n3cc(CCNCc4cc(-c5cncc(OC6COC6)n5)ccn4)oc3=O)nc2N1 [Example 2, 6-{5-[2-({4-[6-(oxetan-3-yloxy)-pyrazin-2-yl]-pyridin-2-ylmethyl}-amino)-ethyl]-2-oxo-oxazol-3-yl}-4H-pyrido[3,2-b][1,4]oxazin-3-one]	0.25 (≈ 0.483 µM)	0.125 (≈ 0.242 µM)	≤ 0.031	≤ 0.031	–	–	–	–
O=C1COc2ccc(N3C[C@H](CCNCc4cccc(-c5cccc(OC6COC6)n5)c4)OC3=O)nc2N1 [Example 6, 6-[(S)-5-(2-{3-[6-(oxetan-3-yloxy)-pyridin-2-yl]-benzylamino}-ethyl)-2-oxo-oxazolidin-3-yl]-4H-pyrido[3,2-b][1,4]oxazin-3-one]	0.25 (≈ 0.483 µM)	0.25 (≈ 0.483 µM)	≤ 0.031	≤ 0.031	–	–	–	–
O=C1COc2ccc(N3C[C@H](CCNCc4ccnc(-c5cncc(OC6COC6)n5)c4)OC3=O)nc2N1 [Example 7, 6-{(S)-5-[2-({2-[6-(oxetan-3-yloxy)-pyrazin-2-yl]-pyridin-4-ylmethyl}-amino)-ethyl]-2-oxo-oxazolidin-3-yl}-4H-pyrido[3,2-b][1,4]oxazin-3-one]	0.5 (≈ 0.962 µM)	0.5 (≈ 0.962 µM)	≤ 0.031	≤ 0.031	–	–	–	–
O=C1COc2ccc(-n3cc(CCNCc4cc(-c5nccc(OC6COC6)n5)ccn4)oc3=O)nc2N1 [Example 13, 6-{5-[2-({4-[4-(oxetan-3-yloxy)-pyrimidin-2-yl]-pyridin-2-ylmethyl}-amino)-ethyl]-2-oxo-oxazol-3-yl}-4H-pyrido[3,2-b][1,4]oxazin-3-one]	0.5 (≈ 0.966 µM)	0.125 (≈ 0.242 µM)	≤ 0.031	≤ 0.031	–	–	–	–
O=C1CSc2ccc(N3C[C@H](CCNCc4cc(-c5nccc(OC6COC6)n5)ccn4)OC3=O)nc2N1 [Example 11, 6-{(S)-5-[2-({4-[4-(oxetan-3-yloxy)-pyrimidin-2-yl]-pyridin-2-ylmethyl}-amino)-ethyl]-2-oxo-oxazolidin-3-yl}-4H-pyrido[3,2-b][1,4]thiazin-3-one]	0.125 (≈ 0.233 µM)	0.125 (≈ 0.233 µM)	≤ 0.031	≤ 0.031	–	–	–	–
O=C1COc2ccc(N3C[C@H](CCNCc4cc(-c5cncc(OC6COC6)n5)c(O)cn4)OC3=O)nc2N1 [Example 14, 6-{(S)-5-[2-({5-hydroxy-4-[6-(oxetan-3-yloxy)-pyrazin-2-yl]-pyridin-2-ylmethyl}-amino)-ethyl]-2-oxo-oxazolidin-3-yl}-4H-pyrido[3,2-b][1,4]oxazin-3-one]	4 (≈ 7.47 µM)	4 (≈ 7.47 µM)	1 (≈ 1.87 µM)	0.5 (≈ 0.934 µM)	–	–	–	–
O=C1COc2ccc(N3C[C@H](CCNCc4cc(-c5nccc(OC6COC6)n5)ccn4)OC3=O)nc2N1 [Example 4, 6-{(S)-5-[2-({4-[4-(oxetan-3-yloxy)-pyrimidin-2-yl]-pyridin-2-ylmethyl}-amino)-ethyl]-2-oxo-oxazolidin-3-yl}-4H-pyrido[3,2-b][1,4]oxazin-3-one]	0.25 (≈ 0.481 µM)	0.125 (≈ 0.241 µM)	≤ 0.031	≤ 0.031	–	–	–	–
O=C1COc2ccc(N3C[C@@H](CCNCc4cc(-c5nccc(OC6COC6)n5)ccn4)OC3=O)nc2N1 [Example 10, 6-{(R)-5-[2-({4-[4-(oxetan-3-yloxy)-pyrimidin-2-yl]-pyridin-2-ylmethyl}-amino)-ethyl]-2-oxo-oxazolidin-3-yl}-4H-pyrido[3,2-b][1,4]oxazin-3-one]	0.5 (≈ 0.962 µM)	0.25 (≈ 0.481 µM)	0.25 (≈ 0.481 µM)	0.063 (≈ 0.121 µM)	–	–	–	–
O=C1COc2ccc(N3C[C@H](CCNCc4cc(-c5cncc(OC6COC6)n5)ccn4)OC3=O)nc2N1 [Example 1, 6-{(S)-5-[2-({4-[6-(oxetan-3-yloxy)-pyrazin-2-yl]-pyridin-2-ylmethyl}-amino)-ethyl]-2-oxo-oxazolidin-3-yl}-4H-pyrido[3,2-b][1,4]oxazin-3-one]	0.25 (≈ 0.481 µM)	0.125 (≈ 0.241 µM)	≤ 0.031	≤ 0.031	–	–	–	–
O=C1COc2ccc(N3C[C@H](CCNCc4nccc(-c5cncc(OC6COC6)n5)c4O)OC3=O)nc2N1 [Example 16, 6-{(S)-5-[2-({3-Hydroxy-4-[6-(oxetan-3-yloxy)-pyrazin-2-yl]-pyridin-2-ylmethyl}-amino)-ethyl]-2-oxo-oxazolidin-3-yl}-4H-pyrido[3,2-b][1,4]oxazin-3-one]	2 (≈ 3.73 µM)	1 (≈ 1.87 µM)	0.25 (≈ 0.467 µM)	0.25 (≈ 0.467 µM)	–	–	–	–
O=C1COc2ccc(N3C[C@H](CCNCc4cc(-c5nccc(OC6COC6)n5)c(O)cn4)OC3=O)nc2N1 [Example 15, 6-{(S)-5-[2-({5-hydroxy-4-[4-(oxetan-3-yloxy)-pyrimidin-2-yl]-pyridin-2-ylmethyl}-amino)-ethyl]-2-oxo-oxazolidin-3-yl}-4H-pyrido[3,2-b][1,4]oxazin-3-one]	0.25 (≈ 0.467 µM)	0.25 (≈ 0.467 µM)	≤ 0.031	≤ 0.031	–	–	–	–
O=C1COc2ccc(N3C[C@H](CCNCc4cc(-c5cc(OC6COC6)ccn5)ccn4)OC3=O)nc2N1 [Example 3, 6-[(S)-5-(2-{[4-(oxetan-3-yloxy)-[2,4′]bipyridinyl-2′-ylmethyl]-amino}-ethyl)-2-oxo-oxazolidin-3-yl]-4H-pyrido[3,2-b][1,4]oxazin-3-one]	1 (≈ 1.93 µM)	1 (≈ 1.93 µM)	1 (≈ 1.93 µM)	0.25 (≈ 0.482 µM)	–	–	–	–
O=C1COc2ccc(N3C[C@H](CCNCc4cccc(-c5cccc(OC6COC6)c5)c4)OC3=O)nc2N1 [Example 9, 6-[(S)-5-(2-{[3′-(oxetan-3-yloxy)-biphenyl-3-ylmethyl]-amino}-ethyl)-2-oxo-oxazolidin-3-yl]-4H-pyrido[3,2-b][1,4]oxazin-3-one]	0.5 (≈ 0.968 µM)	1 (≈ 1.94 µM)	0.125 (≈ 0.242 µM)	≤ 0.031	0.5	1	0.125	≤0.031
O=C1COc2ccc(N3C[C@H](CCNCc4cc(-c5cc(OC6COC6)cnn5)ccn4)OC3=O)nc2N1 [Example 5, 6-{(S)-5-[2-({4-[5-(oxetan-3-yloxy)-pyridazin-3-yl]-pyridin-2-ylmethyl}-amino)-ethyl]-2-oxo-oxazolidin-3-yl}-4H-pyrido[3,2-b][1,4]oxazin-3-one]	8 (≈ 15.4 µM)	8 (≈ 15.4 µM)	8 (≈ 15.4 µM)	0.5 (≈ 0.962 µM)	–	–	–	–
